Reference: the supplement of paper PMC12076712

How the values were obtained:
Assay in all cases: pIC50, kinobeads binding competition
MAP3K4 = MAP3K4 (UniProt Q9Y6R4)
Summary of the method: (§1)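 Jurkat cells were exposed alive to nine compound concentrations (top 30 μM, 1:4 steps) or vehicle for 60 min at 37 °C and then lysed. In a second format, nine concentrations (top 30 μM, 1:5 steps) were incubated for 60 min at 4 °C with Jurkat lysate or with a 1:1:1:1 lysate mix of HEK293, K-562, HepG2 and placenta. Proteins captured on Kinobeads were digested and quantified by TMT10 LC-MS/MS. pIC50 values were derived from logistic dose-response fits (R drc package) of fold changes relative to vehicle, in biological duplicates.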

DYRK1A = DYRK1A (UniProt Q13627)
Summary of the method: as §1

UniProt Q07912 = biological target: UniProt Q07912
UniProt Q07912, sequence (Q07912 whole entry, looked up): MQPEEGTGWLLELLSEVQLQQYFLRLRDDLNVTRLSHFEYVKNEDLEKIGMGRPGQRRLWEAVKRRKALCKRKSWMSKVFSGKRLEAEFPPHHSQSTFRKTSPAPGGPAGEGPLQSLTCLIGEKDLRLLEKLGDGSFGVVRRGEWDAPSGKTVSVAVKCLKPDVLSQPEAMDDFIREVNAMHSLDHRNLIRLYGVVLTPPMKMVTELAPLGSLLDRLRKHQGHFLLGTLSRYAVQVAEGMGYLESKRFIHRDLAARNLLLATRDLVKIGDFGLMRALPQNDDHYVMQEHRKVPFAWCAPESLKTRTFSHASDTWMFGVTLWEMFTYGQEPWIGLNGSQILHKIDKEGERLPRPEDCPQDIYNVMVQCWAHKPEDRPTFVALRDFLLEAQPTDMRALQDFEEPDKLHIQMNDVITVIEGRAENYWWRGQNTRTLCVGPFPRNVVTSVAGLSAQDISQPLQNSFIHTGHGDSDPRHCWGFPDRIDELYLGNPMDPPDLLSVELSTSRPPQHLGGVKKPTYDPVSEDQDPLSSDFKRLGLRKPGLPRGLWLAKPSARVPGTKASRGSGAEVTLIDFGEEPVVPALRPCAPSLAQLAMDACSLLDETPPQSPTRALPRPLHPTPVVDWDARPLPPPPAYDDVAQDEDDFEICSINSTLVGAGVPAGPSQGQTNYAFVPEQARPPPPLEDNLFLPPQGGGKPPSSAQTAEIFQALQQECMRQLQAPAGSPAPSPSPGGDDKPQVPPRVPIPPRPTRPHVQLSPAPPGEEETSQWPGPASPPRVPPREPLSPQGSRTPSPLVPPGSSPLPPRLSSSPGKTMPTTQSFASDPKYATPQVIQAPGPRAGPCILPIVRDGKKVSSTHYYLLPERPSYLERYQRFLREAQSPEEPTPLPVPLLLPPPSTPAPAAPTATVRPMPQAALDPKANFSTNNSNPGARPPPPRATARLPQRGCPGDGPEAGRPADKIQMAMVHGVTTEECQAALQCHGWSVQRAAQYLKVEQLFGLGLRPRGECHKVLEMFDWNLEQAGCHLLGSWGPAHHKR
Summary of the method: as §1

DDR1 = DDR1 (UniProt Q08345)
DDR1, sequence (Q08345 whole entry): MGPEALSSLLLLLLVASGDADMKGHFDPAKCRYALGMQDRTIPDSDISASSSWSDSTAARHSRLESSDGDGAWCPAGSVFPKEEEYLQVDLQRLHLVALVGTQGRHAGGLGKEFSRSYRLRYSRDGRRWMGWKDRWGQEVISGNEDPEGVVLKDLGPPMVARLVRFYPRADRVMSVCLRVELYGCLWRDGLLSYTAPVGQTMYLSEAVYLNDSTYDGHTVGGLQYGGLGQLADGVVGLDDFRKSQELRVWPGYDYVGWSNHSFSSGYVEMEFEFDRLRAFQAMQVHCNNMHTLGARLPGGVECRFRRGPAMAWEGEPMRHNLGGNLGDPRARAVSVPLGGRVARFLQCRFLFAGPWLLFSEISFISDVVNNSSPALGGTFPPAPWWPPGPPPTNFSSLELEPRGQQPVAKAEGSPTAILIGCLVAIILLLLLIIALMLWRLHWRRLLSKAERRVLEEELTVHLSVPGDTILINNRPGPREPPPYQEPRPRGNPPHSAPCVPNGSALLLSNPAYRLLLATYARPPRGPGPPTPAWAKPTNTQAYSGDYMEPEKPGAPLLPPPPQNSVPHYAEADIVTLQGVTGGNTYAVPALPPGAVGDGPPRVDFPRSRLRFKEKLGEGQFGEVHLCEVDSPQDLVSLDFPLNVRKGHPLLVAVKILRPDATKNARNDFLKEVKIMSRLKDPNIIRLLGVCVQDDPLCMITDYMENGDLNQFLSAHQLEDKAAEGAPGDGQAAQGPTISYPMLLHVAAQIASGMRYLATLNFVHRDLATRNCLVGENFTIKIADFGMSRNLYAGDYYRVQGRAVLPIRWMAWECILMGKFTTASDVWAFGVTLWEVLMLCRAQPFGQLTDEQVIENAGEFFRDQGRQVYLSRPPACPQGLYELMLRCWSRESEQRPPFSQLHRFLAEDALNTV
Summary of the method: as §1

PRKX = biological target: T1, PRKX (UniProt P51817)
T1 sequence (whole entry): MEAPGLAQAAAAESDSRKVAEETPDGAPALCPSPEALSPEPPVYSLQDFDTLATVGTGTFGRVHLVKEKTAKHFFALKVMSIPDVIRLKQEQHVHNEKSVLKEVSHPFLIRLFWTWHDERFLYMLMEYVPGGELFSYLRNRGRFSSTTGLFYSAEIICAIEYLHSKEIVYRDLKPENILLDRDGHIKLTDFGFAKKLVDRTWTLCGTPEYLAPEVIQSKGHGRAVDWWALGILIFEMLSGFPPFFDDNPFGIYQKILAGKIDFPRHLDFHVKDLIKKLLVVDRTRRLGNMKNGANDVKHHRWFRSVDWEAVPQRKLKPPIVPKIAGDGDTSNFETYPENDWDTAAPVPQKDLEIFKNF
Summary of the method: as §1

UniProt O43318 = biological target: T2, UniProt O43318
T2 sequence (whole entry): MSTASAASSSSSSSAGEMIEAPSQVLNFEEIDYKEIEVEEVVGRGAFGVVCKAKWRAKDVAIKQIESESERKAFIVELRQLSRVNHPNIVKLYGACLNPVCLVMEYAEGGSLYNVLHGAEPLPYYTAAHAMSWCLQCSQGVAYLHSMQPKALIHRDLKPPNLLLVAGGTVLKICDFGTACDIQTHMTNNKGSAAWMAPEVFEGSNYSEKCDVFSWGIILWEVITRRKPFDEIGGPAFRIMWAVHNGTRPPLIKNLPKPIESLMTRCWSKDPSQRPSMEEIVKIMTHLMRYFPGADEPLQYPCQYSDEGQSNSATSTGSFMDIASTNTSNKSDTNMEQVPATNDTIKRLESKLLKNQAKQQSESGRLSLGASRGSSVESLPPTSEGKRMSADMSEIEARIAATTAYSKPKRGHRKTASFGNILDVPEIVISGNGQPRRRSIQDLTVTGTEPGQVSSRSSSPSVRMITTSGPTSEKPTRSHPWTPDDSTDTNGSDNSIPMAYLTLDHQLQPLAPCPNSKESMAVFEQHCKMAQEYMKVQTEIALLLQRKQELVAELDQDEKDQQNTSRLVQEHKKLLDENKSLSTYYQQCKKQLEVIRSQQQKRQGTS
Summary of the method: as §1

EPHA3 = biological target: T3, EPHA3 (UniProt P29320)
T3 sequence (whole entry): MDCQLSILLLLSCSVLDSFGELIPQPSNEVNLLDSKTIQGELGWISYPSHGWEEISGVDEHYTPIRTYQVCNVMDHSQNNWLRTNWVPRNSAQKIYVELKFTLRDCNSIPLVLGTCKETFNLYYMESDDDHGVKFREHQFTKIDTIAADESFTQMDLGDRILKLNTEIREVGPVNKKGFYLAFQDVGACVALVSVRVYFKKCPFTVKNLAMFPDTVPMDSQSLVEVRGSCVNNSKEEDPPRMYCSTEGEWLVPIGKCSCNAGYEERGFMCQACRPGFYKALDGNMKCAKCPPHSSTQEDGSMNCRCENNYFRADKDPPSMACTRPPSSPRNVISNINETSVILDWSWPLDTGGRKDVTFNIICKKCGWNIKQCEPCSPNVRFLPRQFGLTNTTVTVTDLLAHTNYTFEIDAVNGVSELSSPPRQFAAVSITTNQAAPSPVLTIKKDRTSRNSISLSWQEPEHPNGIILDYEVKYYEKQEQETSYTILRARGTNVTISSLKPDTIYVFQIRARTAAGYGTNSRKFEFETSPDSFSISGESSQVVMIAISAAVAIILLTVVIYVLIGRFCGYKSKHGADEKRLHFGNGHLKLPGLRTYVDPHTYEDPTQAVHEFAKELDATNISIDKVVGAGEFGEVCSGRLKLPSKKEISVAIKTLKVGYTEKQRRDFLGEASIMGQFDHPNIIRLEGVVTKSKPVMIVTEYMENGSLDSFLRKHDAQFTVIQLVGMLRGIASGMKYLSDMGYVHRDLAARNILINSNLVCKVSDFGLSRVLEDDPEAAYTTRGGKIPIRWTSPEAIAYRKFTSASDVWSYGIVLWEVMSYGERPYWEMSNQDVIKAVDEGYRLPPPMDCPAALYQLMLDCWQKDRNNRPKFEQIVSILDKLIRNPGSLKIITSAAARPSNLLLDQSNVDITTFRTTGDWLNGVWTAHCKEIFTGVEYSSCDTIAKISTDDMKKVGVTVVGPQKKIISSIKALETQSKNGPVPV
Summary of the method: as §1

UniProt Q13163 = biological target: T4, UniProt Q13163
T4 sequence (whole entry): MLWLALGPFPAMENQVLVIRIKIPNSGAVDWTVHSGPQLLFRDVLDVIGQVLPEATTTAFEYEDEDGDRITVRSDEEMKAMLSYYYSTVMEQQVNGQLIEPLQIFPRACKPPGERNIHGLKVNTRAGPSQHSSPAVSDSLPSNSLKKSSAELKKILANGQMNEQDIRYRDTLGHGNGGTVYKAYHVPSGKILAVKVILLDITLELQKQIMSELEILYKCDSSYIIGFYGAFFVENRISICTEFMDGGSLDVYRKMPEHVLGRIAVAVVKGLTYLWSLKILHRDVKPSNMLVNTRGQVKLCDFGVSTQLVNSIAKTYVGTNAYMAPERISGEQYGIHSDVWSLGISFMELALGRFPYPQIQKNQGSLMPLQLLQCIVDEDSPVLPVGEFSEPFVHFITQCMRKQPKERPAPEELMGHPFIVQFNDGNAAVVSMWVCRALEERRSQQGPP
Summary of the method: as §1

MAP3K4, sequence (Q9Y6R4 whole entry): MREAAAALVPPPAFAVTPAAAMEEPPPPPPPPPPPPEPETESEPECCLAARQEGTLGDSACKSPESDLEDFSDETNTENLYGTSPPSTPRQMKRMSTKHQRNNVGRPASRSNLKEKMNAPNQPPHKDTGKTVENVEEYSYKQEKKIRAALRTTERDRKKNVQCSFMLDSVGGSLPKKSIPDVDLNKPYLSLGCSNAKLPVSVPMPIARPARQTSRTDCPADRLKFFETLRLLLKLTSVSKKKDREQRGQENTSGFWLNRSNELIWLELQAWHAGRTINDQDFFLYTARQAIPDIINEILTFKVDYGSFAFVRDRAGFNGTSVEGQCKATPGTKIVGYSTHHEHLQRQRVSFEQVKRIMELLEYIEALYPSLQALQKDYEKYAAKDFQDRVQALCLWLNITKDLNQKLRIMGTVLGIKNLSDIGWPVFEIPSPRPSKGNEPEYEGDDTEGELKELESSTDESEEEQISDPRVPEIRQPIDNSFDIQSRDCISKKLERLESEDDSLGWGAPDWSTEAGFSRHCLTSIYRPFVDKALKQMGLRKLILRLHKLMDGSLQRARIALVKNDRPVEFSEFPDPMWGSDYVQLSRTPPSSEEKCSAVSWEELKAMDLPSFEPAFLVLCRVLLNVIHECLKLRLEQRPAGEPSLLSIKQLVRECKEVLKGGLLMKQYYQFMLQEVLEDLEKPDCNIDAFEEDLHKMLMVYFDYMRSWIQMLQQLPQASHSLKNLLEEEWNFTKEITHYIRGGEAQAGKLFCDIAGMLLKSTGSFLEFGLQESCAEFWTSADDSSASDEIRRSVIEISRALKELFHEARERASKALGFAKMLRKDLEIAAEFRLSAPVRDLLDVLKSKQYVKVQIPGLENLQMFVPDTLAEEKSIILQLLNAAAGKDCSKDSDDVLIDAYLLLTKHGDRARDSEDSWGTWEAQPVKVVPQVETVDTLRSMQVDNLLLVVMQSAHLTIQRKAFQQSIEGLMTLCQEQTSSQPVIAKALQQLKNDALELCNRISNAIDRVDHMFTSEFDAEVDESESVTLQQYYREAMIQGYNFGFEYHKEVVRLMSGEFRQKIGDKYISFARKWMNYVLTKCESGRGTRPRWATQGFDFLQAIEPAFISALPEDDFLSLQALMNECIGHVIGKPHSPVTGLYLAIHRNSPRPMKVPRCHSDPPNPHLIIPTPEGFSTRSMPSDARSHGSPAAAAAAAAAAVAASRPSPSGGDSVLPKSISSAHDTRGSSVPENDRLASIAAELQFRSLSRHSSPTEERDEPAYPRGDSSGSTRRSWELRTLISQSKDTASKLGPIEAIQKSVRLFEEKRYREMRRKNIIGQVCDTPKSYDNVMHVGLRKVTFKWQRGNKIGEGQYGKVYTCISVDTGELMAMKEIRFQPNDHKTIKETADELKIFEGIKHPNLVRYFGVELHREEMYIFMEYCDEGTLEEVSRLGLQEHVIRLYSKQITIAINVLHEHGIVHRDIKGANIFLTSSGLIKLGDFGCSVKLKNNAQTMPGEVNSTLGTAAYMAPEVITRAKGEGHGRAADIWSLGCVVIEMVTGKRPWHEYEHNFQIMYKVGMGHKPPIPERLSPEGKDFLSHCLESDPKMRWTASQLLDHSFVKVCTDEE

pIC50 (MAP3K4; cell material: Lysate mix) | pIC50 (DYRK1A; cell material: Lysate mix) | pIC50 (UniProt Q07912; cell material: Lysate mix) | pIC50 (DDR1; cell material: Lysate mix) | pIC50 (PRKX; cell material: Lysate mix) | pIC50 (UniProt O43318; cell material: Lysate mix) | pIC50 (EPHA3; cell material: Lysate mix) | pIC50 (UniProt Q13163; cell material: Lysate mix) | pIC50 (EPHA3; cell material: Jurkat cells) | SMILES | pIC50 (MAP3K4; cell material: Jurkat cells) | pIC50 (MAP3K4; cell material: Jurkat lysate) | pIC50 (DYRK1A; cell material: Jurkat cells) | pIC50 (DYRK1A; cell material: Jurkat lysate) | pIC50 (UniProt Q07912; cell material: Jurkat cells) | pIC50 (UniProt Q07912; cell material: Jurkat lysate) | pIC50 (DDR1; cell material: Jurkat cells) | pIC50 (DDR1; cell material: Jurkat lysate) | pIC50 (PRKX; cell material: Jurkat cells) | pIC50 (PRKX; cell material: Jurkat lysate) | pIC50 (UniProt O43318; cell material: Jurkat cells) | pIC50 (UniProt O43318; cell material: Jurkat lysate) | pIC50 (EPHA3; cell material: Jurkat lysate) | pIC50 (UniProt Q13163; cell material: Jurkat cells) | pIC50 (UniProt Q13163; cell material: Jurkat lysate)
< 4.52 | < 4.52 | < 4.52 | < 4.52 | < 4.52 | < 4.52 | < 4.52 | < 4.52 | – | Cc1cc(Nc2cc(C(=O)NCCNC(=O)OC3CC/C=C/CCC3)nc(N3CCN(Cc4ccc(S(=O)(=O)F)cc4)CC3)n2)n[nH]1 (stereo not drawn) | – | – | – | – | – | – | – | – | – | – | – | – | – | – | –
4.88 | < 4.52 | < 4.52 | < 4.52 | < 4.52 | < 4.52 | < 4.52 | 4.64 | – | C#CCNC(=O)c1cc(Nc2cc(C)[nH]n2)nc(N2CCN(Cc3ccc(S(=O)(=O)F)cc3)CC2)n1 | – | – | – | – | – | – | – | – | – | – | – | – | – | – | –
< 4.52 | < 4.52 | < 4.52 | < 4.52 | < 4.52 | < 4.52 | < 4.52 | < 4.52 | < 4.52 | O=C(NCCNC(=O)c1cc(Nc2cc(C3CC3)[nH]n2)nc(N2CCN(Cc3ccc(S(=O)(=O)F)cc3)CC2)n1)OC1CC/C=C/CCC1 (stereo not drawn) | 5.96 | < 4.52 | < 4.52 | < 4.52 | < 4.52 | < 4.52 | < 4.52 | < 4.52 | 5.28 | < 4.52 | 5.65 | < 4.52 | < 4.52 | 4.99 | < 4.52
4.8 | < 4.52 | < 4.52 | < 4.52 | < 4.52 | < 4.52 | < 4.52 | 4.73 | – | CCNC(=O)c1cc(Nc2cc(C)[nH]n2)nc(N2CCN(Cc3ccc(S(=O)(=O)F)cc3)CC2)n1 | – | – | – | – | – | – | – | – | – | – | – | – | – | – | –
5.61 | < 4.52 | < 4.52 | < 4.52 | 5 | < 4.52 | < 4.52 | 5.28 | – | CCNC(=O)c1cc(Nc2cc(C3CC3)[nH]n2)nc(N2CCN(Cc3ccc(S(=O)(=O)F)cc3)CC2)n1 | – | – | – | – | – | – | – | – | – | – | – | – | – | – | –

SMILES | pIC50 (MAP3K4; cell material: Lysate mix) | pIC50 (DYRK1A; cell material: Lysate mix) | pIC50 (UniProt Q07912; cell material: Lysate mix) | pIC50 (DDR1; cell material: Lysate mix) | pIC50 (PRKX; cell material: Lysate mix) | pIC50 (UniProt O43318; cell material: Lysate mix) | pIC50 (EPHA3; cell material: Lysate mix) | pIC50 (UniProt Q13163; cell material: Lysate mix) | pIC50 (EPHA3; cell material: Jurkat cells) | pIC50 (MAP3K4; cell material: Jurkat cells) | pIC50 (MAP3K4; cell material: Jurkat lysate) | pIC50 (DYRK1A; cell material: Jurkat cells) | pIC50 (DYRK1A; cell material: Jurkat lysate) | pIC50 (UniProt Q07912; cell material: Jurkat cells) | pIC50 (UniProt Q07912; cell material: Jurkat lysate) | pIC50 (DDR1; cell material: Jurkat cells) | pIC50 (DDR1; cell material: Jurkat lysate) | pIC50 (PRKX; cell material: Jurkat cells) | pIC50 (PRKX; cell material: Jurkat lysate) | pIC50 (UniProt O43318; cell material: Jurkat cells) | pIC50 (UniProt O43318; cell material: Jurkat lysate) | pIC50 (EPHA3; cell material: Jurkat lysate) | pIC50 (UniProt Q13163; cell material: Jurkat cells) | pIC50 (UniProt Q13163; cell material: Jurkat lysate)
C#CCNC(=O)c1cc(Nc2cc(C3CC3)[nH]n2)nc(N2CCN(Cc3ccc(S(=O)(=O)F)cc3)CC2)n1 | 5.74 | – | < 4.52 | < 4.52 | 5.26 | < 4.52 | < 4.52 | 5.42 | – | 6.09 | 4.81 | 5.41 | < 4.52 | 5.16 | < 4.52 | 5.54 | < 4.52 | 5.76 | < 4.52 | 5.87 | < 4.52 | < 4.52 | 5.71 | 4.88
